From patent US20130345312A1, “TREATMENT OF MITOCHONDRIAL DISEASES WITH NAPHTHOQUINONES” (priority 2010, published 2013)

Assays:
Assay type in all cases: cell-based
[1] = system: FRDA fibroblasts (Coriell GM04078); assay: Rescue of BSO-stressed human dermal fibroblasts from Friedreich's ataxia patients (Calcein AM viability); conditions: FRDA fibroblasts stressed with 1 mM BSO, 48 h, Calcein AM fluorescence, read-out: protection against FRDA, EC50
Procedure: Test samples and solvent controls were tested for their ability to rescue FRDA fibroblasts stressed by addition of L-buthionine-(S,R)-sulfoximine (BSO), as described in Jauslin et al., Hum. Mol. Genet. 11(24):3055 (2002), Jauslin et al., FASEB J. 17:1972-4 (2003), and International Patent Application WO 2004/003565. […] This specific BSO-mediated cell death can be prevented by administration of antioxidants or molecules involved in the antioxidant pathway, such as alpha-tocopherol, selenium, or small molecule glutathione peroxidase mimetics. However, antioxidants differ in their potency, i.e. the concentration at which they are able to rescue BSO-stressed FRDA fibroblasts. MEM (a medium enriched in amino acids and vitamins, catalog no. 1-31F24-I) and Medium 199 (M199, catalog no. 1-21F22-I) with Earle's Balanced Salts, without phenol red, were purchased from Bioconcept. Fetal Calf Serum was obtained from PAA Laboratories. Basic fibroblast growth factor and epidermal growth factor were purchased from PeproTech. Penicillin-streptomycin-glutamine mix, L-buthionine (S,R)-sulfoximine, and insulin from bovine pancreas were purchased from Sigma. Calcein AM was purchased from Molecular Probes. Cell culture medium was made by combining 125 ml M199 EBS, 50 ml Fetal Calf Serum, 100 U/ml penicillin, 100 μg/ml streptomycin, 2 mM glutamine, 10 μg/ml insulin, 10 ng/ml EGF, and 10 ng/ml bFGF; MEM EBS was added to make the volume up to 500 ml. A 10 mM BSO solution was prepared by dissolving 444 mg BSO in 200 ml of medium with subsequent filter-sterilization. During the course of the experiments, this solution was stored at +4° C. The cells were obtained from the Coriell Cell Repositories (Camden, N.J.; repository number GM04078) and grown in 10 cm tissue culture plates. Every third day, they were split at a 1:3 ratio. The test samples were supplied in 1.5 ml glass vials. The compounds were diluted with DMSO, ethanol or PBS to result in a 5 mM stock solution. Once dissolved, they were stored at −20° C. Test samples were screened according to the following protocol: A culture with FRDA fibroblasts was started from a 1 ml vial with approximately 500,000 cells stored in liquid nitrogen. Cells were propagated in 10 cm cell culture dishes by splitting every third day in a ratio of 1:3 until nine plates were available. Once confluent, fibroblasts were harvested. For 54 micro titer plates (96 well-MTP) a total of 14.3 million cells (passage eight) were re-suspended in 480 ml medium, corresponding to 100 μL medium with 3,000 cells/well. The remaining cells were distributed in 10 cm cell culture plates (500,000 cells/plate) for propagation. The plates were incubated overnight at 37° C. in a atmosphere with 95% humidity and 5% CO2 to allow attachment of the cells to the culture plate. MTP medium (243 μL) was added to a well of the microtiter plate. The test compounds were unfrozen and 7.5 μL of a 5 mM stock solution was dissolved in the well containing 243 μL medium, resulting in a 150 μM master solution. Serial dilutions from the master solution were made. The period between the single dilution steps was kept as short as possible (generally less than 1 second). Plates were kept overnight in the cell culture incubator. The next day, 10 μL of a 10 mM BSO solution were added to the wells, resulting in a 1 mM final BSO concentration. Forty-eight hours later, three plates were examined under a phase-contrast microscope to verify that the cells in the 0% control (wells E1-H1) were clearly dead. The medium from all plates was discarded, and the remaining liquid was removed by gently tapping the plate inversed onto a paper towel. 100 μl of PBS containing 1.2 μM Calcein AM were then added to each well. The plates were incubated for 50-70 minutes at room temperature. After that time the PBS was discarded, the plate gently tapped on a paper towel and fluorescence (excitation/emission wavelengths of 485 nm and 525 nm, respectively) was read on a Gemini fluorescence reader. […]

[2] = system: Huntington's cells (Coriell GM 04281); assay: Rescue of fibroblasts from Huntington's patients from oxidative stress (screen as in Example A); conditions: Fibroblast, human dermal fibroblasts from Huntington's patients, read-out: protection against Huntington's, EC50
Procedure: Compounds of the invention were tested using the screen as described in Example A, but substituting FRDA cells with Huntington's cells obtained from the Coriell Cell Repositories (Camden, N.J.; repository number GM 04281). The compounds were tested for their ability to rescue human dermal fibroblasts from Huntington's patients from oxidative stress.

[3] = system: Leber's Hereditary Optic Neuropathy (LHON) cells (Coriell GM03858); assay: Rescue of fibroblasts from Leber's Hereditary Optic Neuropathy patients from oxidative stress (screen as in Example A); conditions: Fibroblast, human dermal fibroblasts from LHON patients, read-out: protection against LHON, EC50
Procedure: Compounds of the invention were screened as described in Example A, but substituting FRDA cells with Leber's Hereditary Optic Neuropathy (LHON) cells obtained from the Coriell Cell Repositories (Camden, N.J.; repository number GM03858). The compounds were tested for their ability to rescue human dermal fibroblasts from LHON patients from oxidative stress.

[4] = system: cells obtained from CoQ10 deficient patients harboring a CoQ2 mutation; assay: Rescue of fibroblasts from CoQ10 deficient patients from oxidative stress (screen similar to Example A); conditions: Fibroblast, human dermal fibroblasts from CoQ10 deficient patients (CoQ2 mutation), read-out: protection against CoQ10 deficiency, EC50
Procedure: Compounds of the invention were tested using a screen similar to the one described in Example A, but substituting FRDA cells with cells obtained from CoQ10 deficient patients harboring a CoQ2 mutation. The compounds were tested for their ability to rescue human dermal fibroblasts from CoQ10 deficient patients from oxidative stress.

[5] = system: Parkinson's disease (PD) cells (Coriell AG20439); assay: Rescue of fibroblasts from Parkinson's disease patients from oxidative stress (screen as in Example A); conditions: Fibroblast, human dermal fibroblasts from Parkinson's disease patients, read-out: protection against PD, EC50
Procedure: Compounds of the invention were screened as described in Example A, but substituting FRDA cells with Parkinson's disease (PD) cells obtained from the Coriell Cell Repositories (Camden, N.J.; repository number AG20439). The compounds were tested for their ability to rescue human dermal fibroblasts from Parkinson's disease patients from oxidative stress.

Row | Compound | EC50 [1] [nM] | EC50 [2] [nM] | EC50 [3] [nM] | EC50 [4] [nM] | EC50 [5] [nM]
1 | COC1=C(OC)C(=O)c2ccccc2C1=O [2,3-dimethoxynaphthalene-1,4-dione] | < 100 | < 150 | < 150 | < 100 | –
2 | O=C1C=CC(=O)c2ccccc21 [naphthalene-1,4-dione] | < 100 | < 150 | < 150 | – | < 200
3 | COC1=CC(=O)c2ccccc2C1=O [2-methoxynaphthalene-1,4-dione] | < 100 | < 150 | < 150 | < 100 | –
4 | CC1=C(C)C(=O)c2ccccc2C1=O [2,3-dimethylnaphthalene-1,4-dione] | < 100 | < 150 | < 150 | < 100 | < 200
5 | CCCCCCC1=C(C)C(=O)c2ccccc2C1=O [2-hexyl-3-methylnaphthalene-1,4-dione] | < 100 | < 150 | < 150 | < 100 | < 200
6 | CCCCC1=C(C)C(=O)c2ccccc2C1=O [2-butyl-3-methylnaphthalene-1,4-dione] | < 100 | < 150 | < 150 | < 100 | < 200
